Test results from the supplement of paper PMC10307832.

How the values were obtained:
Assay in all cases: relative viability (nuclei count vs DMSO), 5 days (fraction); higher = more cells survive
[1] = compound: O=c1ncccn1[C@@H]1O[C@H](CO)[C@@H](O)[C@H]1O [Zebularine] + N=C(N)NC(=N)NCCc1ccccc1 [Phenformin] (partner 250 µM)
How it was run: (§1)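 Nuclei were stained with Hoechst during a one-step fixation (final 0.05% Triton X-100, 1% formaldehyde, 1 ug/ml Hoechst) carried out 5 days after dosing, then counted on 4× images. The cells, lung cancer lines in 1536-well plates, had been dosed by pin tool the day after seeding with one drug alone or a fixed anchor-drug dose plus five library-drug doses (not always all listed) in √10 steps. Relative viability is the nuclei count in treated wells divided by that in vehicle wells, and each value is the median of duplicate plates.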

[2] = compound: CC(C)CCN1c2nc(Nc3cc(F)c(O)c(F)c3)ncc2N(C)C(=O)C1C [BI-D1870] + N=C(N)NC(=N)NCCc1ccccc1 [Phenformin] (partner 250 µM)
How it was run: as §1

[3] = compound: CC(C)CCN1c2nc(Nc3cc(F)c(O)c(F)c3)ncc2N(C)C(=O)C1C [BI-D1870] + CCNC(=O)c1noc(-c2cc(C(C)C)c(O)cc2O)c1-c1ccc(CN2CCOCC2)cc1 [Luminespib] (partner 0.01 µM)
How it was run: as §1

[4] = compound: O=c1ncccn1[C@@H]1O[C@H](CO)[C@@H](O)[C@H]1O [Zebularine] + CCNC(=O)c1noc(-c2cc(C(C)C)c(O)cc2O)c1-c1ccc(CN2CCOCC2)cc1 [Luminespib] (partner 0.01 µM)
How it was run: as §1

For UMC-11, the relative viability ([1]; first compound 1 µM) was 0.282, the relative viability ([1]; first compound 3.162 µM) was 0.344 and the relative viability ([1]; first compound 10 µM) was 0.258. The relative viability ([1]; first compound 31.62 µM) was 0.327, the relative viability ([1]; first compound 100 µM) was 0.292 and the relative viability ([2]; first compound 0.04 µM) was 0.332. The relative viability ([2]; first compound 0.1265 µM) was 0.285, the relative viability ([2]; first compound 0.4 µM) was 0.33 and the relative viability ([2]; first compound 1.265 µM) was 0.295. The relative viability ([2]; first compound 4 µM) was 0.183, the relative viability ([3]; first compound 0.04 µM) was 1.06 and the relative viability ([3]; first compound 0.1265 µM) was 1.05. For the same cell line, the relative viability ([3]; first compound 0.4 µM) was 0.939, the relative viability ([3]; first compound 1.265 µM) was 1.08 and the relative viability ([3]; first compound 4 µM) was 0.206. It also gave a relative viability ([4]; first compound 1 µM) of 1.06, a relative viability ([4]; first compound 3.162 µM) of 0.996 and a relative viability ([4]; first compound 10 µM) of 0.686. For the same cell line, the relative viability ([4]; first compound 31.62 µM) was 0.62 and the relative viability ([4]; first compound 100 µM) was 0.316.
